Data: ChEMBL document CHEMBL1909046, “DrugMatrix in vitro pharmacology data”

Columns and labels:
[1] = DRUGMATRIX: Sodium/nucleoside co-transporter radioligand binding (ligand: nitrobenzylthioinosine); format: cell membranes, Cavia porcellus, Dunkin-Hartley, Cerebral cortex, Membrane; settings: Not Active = under 50% inhibition at 10 µM
[2] = target: 5-hydroxytryptamine receptor 6 (Homo sapiens, UniProt P50406); format: cell membranes, HeLa, Membrane; settings: for Ki: read-out: Ki; for all read-outs here: in other assays of this panel Not Active means under 50% inhibition at 10 µM
5-hydroxytryptamine receptor 6, sequence (P50406 whole entry): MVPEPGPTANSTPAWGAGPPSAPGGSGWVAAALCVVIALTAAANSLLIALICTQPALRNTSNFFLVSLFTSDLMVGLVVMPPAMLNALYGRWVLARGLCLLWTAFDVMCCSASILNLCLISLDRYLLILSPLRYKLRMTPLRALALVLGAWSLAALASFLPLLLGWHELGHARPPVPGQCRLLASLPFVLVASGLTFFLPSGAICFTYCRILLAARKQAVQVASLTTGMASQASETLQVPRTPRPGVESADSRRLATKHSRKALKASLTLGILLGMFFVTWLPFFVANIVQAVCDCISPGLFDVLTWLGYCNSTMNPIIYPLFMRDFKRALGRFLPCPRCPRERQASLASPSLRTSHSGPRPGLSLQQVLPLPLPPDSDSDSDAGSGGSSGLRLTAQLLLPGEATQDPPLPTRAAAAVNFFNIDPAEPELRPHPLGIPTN

[3] = target: Platelet-activating factor receptor (Homo sapiens, UniProt P25105); format: tissue-based; note: in other assays of this panel Not Active means under 50% inhibition at 10 µM
Platelet-activating factor receptor, sequence (P25105 whole entry): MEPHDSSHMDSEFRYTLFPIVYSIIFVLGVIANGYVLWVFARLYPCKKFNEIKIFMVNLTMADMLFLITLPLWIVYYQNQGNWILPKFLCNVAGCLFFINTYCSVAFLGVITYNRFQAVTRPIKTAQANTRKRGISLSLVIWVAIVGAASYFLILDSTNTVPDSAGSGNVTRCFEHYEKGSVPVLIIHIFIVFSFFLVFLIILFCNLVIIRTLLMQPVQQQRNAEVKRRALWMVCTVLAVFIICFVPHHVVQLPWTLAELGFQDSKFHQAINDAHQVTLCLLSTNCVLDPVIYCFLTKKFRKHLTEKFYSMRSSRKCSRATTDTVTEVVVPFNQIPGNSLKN

[4] = target: 5-hydroxytryptamine receptor 1B (Rattus norvegicus, UniProt P28564); format: cell membranes, Wistar, Cerebral cortex, Membrane; settings: for Ki: read-out: Ki; for all read-outs here: in other assays of this panel Not Active means under 50% inhibition at 10 µM
5-hydroxytryptamine receptor 1B, sequence (P28564 whole entry): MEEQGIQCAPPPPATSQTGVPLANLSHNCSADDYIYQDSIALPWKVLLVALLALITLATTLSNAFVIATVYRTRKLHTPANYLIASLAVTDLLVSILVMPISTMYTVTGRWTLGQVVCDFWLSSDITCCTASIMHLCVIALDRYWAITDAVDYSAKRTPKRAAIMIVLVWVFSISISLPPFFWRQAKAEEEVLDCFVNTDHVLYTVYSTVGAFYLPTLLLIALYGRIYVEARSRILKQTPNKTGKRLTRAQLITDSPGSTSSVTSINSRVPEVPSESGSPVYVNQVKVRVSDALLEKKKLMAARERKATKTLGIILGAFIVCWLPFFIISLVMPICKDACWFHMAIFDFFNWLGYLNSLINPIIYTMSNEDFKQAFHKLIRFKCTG

Insulin receptor = Insulin receptor (Rattus norvegicus, UniProt P15127); format: cell membranes, Wistar, Liver, Membrane; note: in other assays of this panel Not Active means under 50% inhibition at 10 µM
Insulin receptor, sequence (P15127 27-759 limits assumed): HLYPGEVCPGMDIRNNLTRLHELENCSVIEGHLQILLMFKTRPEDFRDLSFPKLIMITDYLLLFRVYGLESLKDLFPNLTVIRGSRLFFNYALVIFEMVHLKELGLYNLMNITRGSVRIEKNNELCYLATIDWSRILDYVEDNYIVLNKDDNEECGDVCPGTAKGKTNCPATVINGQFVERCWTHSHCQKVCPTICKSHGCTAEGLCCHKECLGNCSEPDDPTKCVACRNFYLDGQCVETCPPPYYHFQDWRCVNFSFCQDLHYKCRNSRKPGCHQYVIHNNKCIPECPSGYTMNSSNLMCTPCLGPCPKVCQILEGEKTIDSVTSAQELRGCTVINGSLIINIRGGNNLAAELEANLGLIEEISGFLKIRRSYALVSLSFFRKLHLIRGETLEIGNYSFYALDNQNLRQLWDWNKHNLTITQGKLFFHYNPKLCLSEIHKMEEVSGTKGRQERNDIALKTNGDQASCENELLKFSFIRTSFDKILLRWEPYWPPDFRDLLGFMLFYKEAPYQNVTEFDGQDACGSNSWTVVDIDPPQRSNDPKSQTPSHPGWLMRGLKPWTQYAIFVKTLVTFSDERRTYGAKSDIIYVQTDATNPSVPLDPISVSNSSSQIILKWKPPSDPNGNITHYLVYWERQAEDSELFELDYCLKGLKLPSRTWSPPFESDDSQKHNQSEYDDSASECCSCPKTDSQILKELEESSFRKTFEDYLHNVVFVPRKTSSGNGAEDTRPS
Insulin receptor, sequence (P15127 764-1383 limits assumed): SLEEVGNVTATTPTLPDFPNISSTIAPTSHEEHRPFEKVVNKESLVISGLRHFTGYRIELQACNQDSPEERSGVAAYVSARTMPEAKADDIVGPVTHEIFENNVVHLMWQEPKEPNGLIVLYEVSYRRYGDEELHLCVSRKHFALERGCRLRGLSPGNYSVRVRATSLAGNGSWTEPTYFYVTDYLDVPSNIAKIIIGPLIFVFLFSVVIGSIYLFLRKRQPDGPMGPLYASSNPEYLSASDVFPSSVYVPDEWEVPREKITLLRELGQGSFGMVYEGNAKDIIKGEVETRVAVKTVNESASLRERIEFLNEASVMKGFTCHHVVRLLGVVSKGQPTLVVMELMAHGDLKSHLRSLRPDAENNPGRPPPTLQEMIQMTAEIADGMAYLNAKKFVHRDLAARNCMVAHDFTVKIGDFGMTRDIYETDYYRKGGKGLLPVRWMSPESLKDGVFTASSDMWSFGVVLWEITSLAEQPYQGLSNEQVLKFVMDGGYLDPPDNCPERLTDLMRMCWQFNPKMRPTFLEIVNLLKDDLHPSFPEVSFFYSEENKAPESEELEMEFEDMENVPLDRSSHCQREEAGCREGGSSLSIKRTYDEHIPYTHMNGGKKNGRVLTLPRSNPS

[5] = target: T1, Neuropeptide Y receptor type 2 (Homo sapiens, UniProt P49146); format: cell membranes, KAN-TS, Membrane; note: in other assays of this panel Not Active means under 50% inhibition at 10 µM
T1 sequence (P49146 whole entry): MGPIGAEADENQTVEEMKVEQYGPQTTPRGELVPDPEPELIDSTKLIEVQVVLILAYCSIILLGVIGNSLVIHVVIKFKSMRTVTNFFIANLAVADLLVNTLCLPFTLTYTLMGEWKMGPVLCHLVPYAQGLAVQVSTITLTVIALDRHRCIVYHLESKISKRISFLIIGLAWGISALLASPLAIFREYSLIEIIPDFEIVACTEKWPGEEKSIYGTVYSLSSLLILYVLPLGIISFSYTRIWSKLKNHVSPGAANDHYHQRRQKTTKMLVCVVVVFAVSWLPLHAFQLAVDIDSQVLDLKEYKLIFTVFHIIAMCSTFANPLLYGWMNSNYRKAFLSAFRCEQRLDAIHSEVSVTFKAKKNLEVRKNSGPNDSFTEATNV

[6] = DRUGMATRIX: Purinergic P2X radioligand binding (ligand: [3H] alpha, beta-Methylene-ATP); format: cell membranes, Oryctolagus cuniculus, New Zealand albino, Urinary bladder, Membrane; settings: Not Active = under 50% inhibition at 10 µM

Row | SMILES | IC50 [1] | Ki [1] | IC50 ([2]; hela) | IC50 [3] | IC50 [4] | IC50 (Insulin receptor) | IC50 ([5]; kan-ts) | IC50 [6] | Ki [6] | IC50 ([2]; read-out: IC50) | Ki [2] | IC50 ([4]; read-out: IC50) | Ki [4] | IC50 ([5]; read-out: IC50) | Ki ([5]; read-out: Ki)
1 | Cc1c(C)c2c(c(C)c1O)CCC(C)(CN1CCN(c3cc(N4CCCC4)nc(N4CCCC4)n3)CC1)O2 (configuration not stated) | Not Active | Not Active | Not Active | Not Active | Not Active | Not Active | Not Active | Not Active | Not Active |  |  |  |  |  | 
2 | COc1ccc(CCN(C)CCCC(C#N)(c2ccc(OC)c(OC)c2)C(C)C)cc1OC (configuration not stated) | Not Active | Not Active | Not Active | Not Active | Not Active | Not Active | Not Active | Not Active | Not Active |  |  |  |  |  | 
3 | CC(C)Cc1ccc([C@@H](C)C(=O)O)cc1 [(R)-IBUPROPHEN] | Not Active | Not Active | Not Active | Not Active | Not Active | Not Active | Not Active | Not Active | Not Active |  |  |  |  |  | 
4 | CN(C)CCOC(c1ccccc1)c1ccccc1 [DIPHENHYDRAMINE] |  |  | Not Active | Not Active | Not Active | Not Active | Not Active |  |  |  |  |  |  |  | 
5 | Clc1ccc(COC(Cn2ccnc2)c2ccc(Cl)cc2Cl)cc1 (configuration not stated) [ECONAZOLE] |  |  |  | Not Active |  | Not Active |  |  |  | 10.9 µM | 5.06 µM | 22 µM | 10 µM | 20.1 µM | 11 µM
6 | CCN(CC)CCOc1ccc(/C(=C(/Cl)c2ccccc2)c2ccccc2)cc1 [ENCLOMIPHENE] |  |  |  | Not Active | Not Active | Not Active | Not Active |  |  | 1.52 µM | 0.707 µM |  |  |  | 
7 | Fc1ccc(C(c2ccc(F)cc2)N2CCN(C/C=C/c3ccccc3)CC2)cc1 [FLUNARIZINE] |  |  | Not Active | Not Active | Not Active | Not Active | Not Active |  |  |  |  |  |  |  | 
8 | CNCCC(Oc1ccc(C(F)(F)F)cc1)c1ccccc1 (configuration not stated) [FLUOXETINE] |  |  |  | Not Active | Not Active | Not Active | Not Active |  |  |  |  |  |  |  | 
9 | Cc1ccc(NC(=O)c2ccc(CN3CCN(C)CC3)cc2)cc1Nc1nccc(-c2cccnc2)n1 [IMATINIB] |  |  | Not Active | Not Active | Not Active | Not Active | Not Active |  |  |  |  |  |  |  | 
10 | CC(C)Oc1ccc2c(=O)c(-c3ccccc3)coc2c1 [IPRIFLAVONE] | Not Active | Not Active | Not Active | Not Active | Not Active | Not Active | Not Active | Not Active | Not Active |  |  |  |  |  | 
11 | CC(C)NCC(O)c1ccc(O)c(O)c1 (configuration not stated) [ISOPROTERENOL] | Not Active | Not Active | Not Active | Not Active | Not Active | Not Active | Not Active | Not Active | Not Active |  |  |  |  |  | 
12 | CNC1(c2ccccc2Cl)CCCCC1=O (configuration not stated) [KETAMINE] | Not Active | Not Active | Not Active | Not Active | Not Active | Not Active | Not Active | Not Active | Not Active |  |  |  |  |  | 
13 | N#Cc1ccc(C(c2ccc(C#N)cc2)n2cncn2)cc1 [LETROZOLE] | Not Active | Not Active | Not Active | Not Active | Not Active | Not Active | Not Active | Not Active | Not Active |  |  |  |  |  | 
14 | CCN1CCC[C@H]1CNC(=O)c1cc(S(N)(=O)=O)ccc1OC [LEVOSULPIRIDE] | Not Active | Not Active | Not Active | Not Active | Not Active | Not Active | Not Active | Not Active | Not Active |  |  |  |  |  | 
15 | CCN(CC)CC(=O)Nc1c(C)cccc1C [LIDOCAINE] | Not Active | Not Active | Not Active | Not Active | Not Active | Not Active | Not Active | Not Active | Not Active |  |  |  |  |  | 
16 | O=C1Nc2ccc(Cl)cc2C(c2ccccc2Cl)=NC1O (configuration not stated) [LORAZEPAM] | Not Active | Not Active | Not Active | Not Active | Not Active | Not Active | Not Active | Not Active | Not Active |  |  |  |  |  | 
17 | CO[C@@H]1[C@@H](OC)[C@H](C)[C@@](O)(CC(=O)O)O[C@H]1[C@H](C)[C@H]1O[C@@]2(CC[C@@](C)([C@H]3CC[C@@](C)([C@@H]4O[C@@H]([C@H]5O[C@](C)(O)[C@H](C)C[C@@H]5C)C[C@@H]4O[C@@H]4C[C@H](OC)[C@@H](OC)[C@H](C)O4)O3)O2)C[C@H](O)[C@H]1C [MADURAMICIN ACID] | Not Active | Not Active |  | Not Active |  | Not Active | Not Active | Not Active | Not Active | 0.0017 µM | 0.000789 µM | 0.00298 µM | 0.00135 µM |  | 
18 | COc1c2occc2cc2ccc(=O)oc12 [METHOXSALEN] | Not Active | Not Active | Not Active | Not Active | Not Active | Not Active | Not Active | Not Active | Not Active |  |  |  |  |  | 
19 | C[C@H]1C[C@@H]2[C@H]([C@@H](O)C[C@@]3(C)[C@H]2CC[C@]3(O)C(=O)CO)[C@@]2(C)C=CC(=O)C=C12 [METHYLPREDNISOLONE] | Not Active | Not Active | Not Active | Not Active | Not Active | Not Active | Not Active | Not Active | Not Active |  |  |  |  |  | 
20 | Cc1cccc(C)c1OCC(C)N (configuration not stated) [MEXILETINE] | Not Active | Not Active | Not Active | Not Active | Not Active | Not Active | Not Active | Not Active | Not Active |  |  |  |  |  | 
21 | Nc1cc(N2CCCCC2)nc(N)[n+]1[O-] [MINOXIDIL] | Not Active | Not Active | Not Active | Not Active | Not Active | Not Active | Not Active | Not Active | Not Active |  |  |  |  |  | 
22 | CO[C@H]1/C=C/O[C@@]2(C)Oc3c(C)c(O)c4c(O)c(c(/C=N/N5CCN(C6CCCC6)CC5)c(O)c4c3C2=O)NC(=O)/C(C)=C\C=C\[C@H](C)[C@H](O)[C@@H](C)[C@@H](O)[C@@H](C)[C@H](OC(C)=O)[C@@H]1C [RIFAPENTINE] | Not Active | Not Active | Not Active | Not Active | Not Active | Not Active | Not Active | Not Active | Not Active |  |  |  |  |  | 
23 | CCCCOc1cc(CC2CNC(=O)N2)ccc1OC (configuration not stated) [RO-201724] | Not Active | Not Active | Not Active | Not Active | Not Active | Not Active | Not Active | Not Active | Not Active |  |  |  |  |  | 
24 | CC[C@@H](C(=O)[C@@H](C)[C@@H](O)[C@H](C)[C@@H]1O[C@@H]([C@@H](CC)C(=O)O)CC[C@@H]1C)[C@H]1O[C@]2(C=C[C@@H](O)[C@]3(CC[C@@](C)([C@H]4CC[C@](O)(CC)[C@H](C)O4)O3)O2)[C@H](C)C[C@@H]1C [SALINOMYCIN] | Not Active | Not Active | Not Active | Not Active | Not Active | Not Active | Not Active | Not Active | Not Active |  |  |  |  |  | 
25 | O=C(Oc1ccccc1C(=O)O)c1ccccc1O [SALSALATE] | Not Active | Not Active | Not Active | Not Active | Not Active | Not Active | Not Active | Not Active | Not Active |  |  |  |  |  | 
26 | O=C(O)c1cn(-c2ccc(F)cc2)c2cc(N3CCNCC3)c(F)cc2c1=O [SARAFLOXACIN] | Not Active | Not Active | Not Active | Not Active | Not Active | Not Active | Not Active | Not Active | Not Active |  |  |  |  |  | 
27 | CN[C@H]1CC[C@@H](c2ccc(Cl)c(Cl)c2)c2ccccc21 [SERTRALINE] |  |  | Not Active | Not Active | Not Active | Not Active | Not Active |  |  |  |  |  |  |  | 
28 | CC(C)NCC(O)c1ccc(NS(C)(=O)=O)cc1 (configuration not stated) [SOTALOL] | Not Active | Not Active | Not Active | Not Active | Not Active | Not Active | Not Active | Not Active | Not Active |  |  |  |  |  | 
29 | O.O.O.O.O.O.[Cl-].[Cl-].[Sr+2] [STRONTIUM CHLORIDE HEXAHYDRATE] | Not Active | Not Active | Not Active | Not Active | Not Active | Not Active | Not Active | Not Active | Not Active |  |  |  |  |  | 
30 | O=C1C(CC[S+]([O-])c2ccccc2)C(=O)N(c2ccccc2)N1c1ccccc1 (configuration not stated) [SULFINPYRAZONE] | Not Active | Not Active | Not Active | Not Active | Not Active | Not Active | Not Active | Not Active | Not Active |  |  |  |  |  | 
